Reference: patent US9303261B2, “Composition for controlling chromogenesis including microRNA” (Amorepacific Corporation, priority 2011, dated 2016)

System: tyrosinase mRNA
Assay: Tyrosinase mRNA expression by real-time PCR after transfection of WM115 cells with miR-125b inhibitor
Assay type: cell-based, human
Details: melanoma cell line WM115, 75 uM transfected using liposome, about 60 hours, compared to Comparative Examples 1 and 2
Protocol: The present inventors used an inhibitor of […] to perform a loss-of-function study of miR-125b, in which the inhibitor of miR-125b is an oligonucleotide having a sequence complementary to that of miR-125b and can bind to miR-125b in cells to inhibit the function of the miR-125b.
75 uM of an inhibitor of miR-125b (model: IH-300595-05-0005, miRIDIAN Hairpin Inhibitor, Human hsa-miR-125b MIMAT0000423/MI0000446 (hsa-miR-125b), Dharmacon, Inc.; Example 2) was transfected into the melanoma cell line WM115 using liposome and allowed to move into the cells. […] After transfection, the cells were cultured in a 5% CO2 incubator at 37° C. for about 60 hours, and then RNA was isolated from the cells using 1 ml of Trizol reagent. Specifically, the cells were lysed using Trizol, and then centrifuged to remove the supernatant, and 0.35 ml of isopropanol was added to the residue to form nucleic acid pellets, which were then washed with 70% EtOH and dissolved in water to isolate RNA. About 1 ug of the RNA was made into cDNA using oligo dT and reverse transcriptase, and the cDNA was subjected to real-time PCR according to the TaqMan method (Applied Biosystems) using a primer (assay ID: Hs01099965_m1) specific to tyrosinase mRNA under the following conditions: reaction at 95° C. for 10 min; and then about 45 cycles of 10 sec at 95° C. and 1 min at 60° C. […]

Example 2: miRIDIAN Hairpin Inhibitor, Human hsa-miR-125b (IH-300595-05-0005, Dharmacon); oligonucleotide with sequence complementary to miR-125b
expression level of tyrosinase mRNA (normalized to GAPDH): significantly increased
